{"source": "patent US8962843B2", "about": "“1,3,4-oxadiazole and 1,3,4-thiadiazole beta-lactamase inhibitors” (priority 2012, dated 2015)", "key": {"[1]": {"test_system": "bacterial strains that express KPC β-lactamases", "experiment": "Standard BLI potentiation MIC / synergy MIC assays, strains expressing KPC β-lactamases", "assay_type": "cell-based", "conditions": "in combination with a β-lactam; comparator Avibactam", "procedure,_shortened": "(§1)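 Broth microdilution in cation-adjusted Mueller Hinton broth per CLSI M07-A9, ~10^5 CFU/mL, 18-20 h at 37 °C with aeration; engineered E. coli carrying β-lactamase plasmids kept on 25 μg/mL tetracycline. β-lactam MIC measured in 2-fold dilutions (128-0.13 μg/mL) with BLI fixed at 4 μg/mL; sMIC titrates BLI against a fixed β-lactam concentration. MIC = lowest concentration without visible turbidity.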"}, "[2]": {"test_system": "bacterial strains that express the class D cephalosporinase OXA-15", "experiment": "Standard BLI potentiation MIC / synergy MIC assays, strains expressing OXA-15", "assay_type": "cell-based, E. coli", "conditions": "in combination with a β-lactam; comparator Avibactam (CCC)", "procedure,_shortened": "as §1"}}, "note": "Counter-ions that a name gives are not always drawn.", "data": [{"smiles": "N[C@@H]1CN[C@H](c2nnc([C@@H]3CC[C@@H]4CN3C(=O)N4OS(=O)(=O)O)o2)C1", "note": "[Compound 760, (2S,5R)-2-(5-((2S,4S)-4-aminopyrrolidin-2-yl)-1,3,4-oxadiazol-2-yl)-7-oxo-1,6-diazabicyclo[3.2.1]octan-6-yl hydrogen sulfate]", "values": [{"measurement": "activity and/or spectrum of activity against bacterial strains that express KPC β-lactamases, compared with Avibactam", "setting": "[1]", "result": "more active than Avibactam for at least one, bacterial strain that expresses KPC β-lactamase and/or show a better spectrum of activity"}, {"measurement": "activity against bacterial strains that express the class D cephalosporinase OXA-15, compared with Avibactam", "setting": "[2]", "result": "more active than Avibactam"}]}, {"smiles": "N[C@H]1CN[C@@H](c2nnc([C@@H]3CC[C@@H]4CN3C(=O)N4OS(=O)(=O)O)o2)C1", "note": "[Compound 761, (2S,5R)-2-(5-((2R,4R)-4-aminopyrrolidin-2-yl)-1,3,4-oxadiazol-2-yl)-7-oxo-1,6-diazabicyclo[3.2.1]octan-6-yl hydrogen sulfate]", "values": [{"measurement": "activity and/or spectrum of activity against bacterial strains that express KPC β-lactamases, compared with Avibactam", "setting": "[1]", "result": "more active than Avibactam for at least one, bacterial strain that expresses KPC β-lactamase and/or show a better spectrum of activity"}, {"measurement": "activity against bacterial strains that express the class D cephalosporinase OXA-15, compared with Avibactam", "setting": "[2]", "result": "more active than Avibactam"}]}, {"smiles": "N[C@H]1CN[C@H](c2nnc([C@@H]3CC[C@@H]4CN3C(=O)N4OS(=O)(=O)O)o2)C1", "note": "[Compound 762, (2S,5R)-2-(5-((2S,4R)-4-aminopyrrolidin-2-yl)-1,3,4-oxadiazol-2-yl)-7-oxo-1,6-diazabicyclo[3.2.1]octan-6-yl hydrogen sulfate]", "values": [{"measurement": "activity and/or spectrum of activity against bacterial strains that express KPC β-lactamases, compared with Avibactam", "setting": "[1]", "result": "more active than Avibactam for at least one, bacterial strain that expresses KPC β-lactamase and/or show a better spectrum of activity"}, {"measurement": "activity against bacterial strains that express the class D cephalosporinase OXA-15, compared with Avibactam", "setting": "[2]", "result": "more active than Avibactam"}]}, {"smiles": "N[C@@H]1CN[C@@H](c2nnc([C@@H]3CC[C@@H]4CN3C(=O)N4OS(=O)(=O)O)o2)C1", "note": "[Compound 763, (2S,5R)-2-(5-((2R,4S)-4-aminopyrrolidin-2-yl)-1,3,4-oxadiazol-2-yl)-7-oxo-1,6-diazabicyclo[3.2.1]octan-6-yl hydrogen sulfate]", "values": [{"measurement": "activity and/or spectrum of activity against bacterial strains that express KPC β-lactamases, compared with Avibactam", "setting": "[1]", "result": "more active than Avibactam for at least one, bacterial strain that expresses KPC β-lactamase and/or show a better spectrum of activity"}, {"measurement": "activity against bacterial strains that express the class D cephalosporinase OXA-15, compared with Avibactam", "setting": "[2]", "result": "more active than Avibactam"}]}, {"smiles": "O=C1N2C[C@@H](CC[C@H]2c2nnc(CC3CCNC3)o2)N1OS(=O)(=O)O", "note": "(stereo partly drawn) [Compound 764, (2S,5R)-7-oxo-2-(5-(pyrrolidin-3-ylmethyl)-1,3,4-oxadiazol-2-yl)-1,6-diazabicyclo[3.2.1]octan-6-yl hydrogen sulfate]", "values": [{"measurement": "activity and/or spectrum of activity against bacterial strains that express KPC β-lactamases, compared with Avibactam", "setting": "[1]", "result": "more active than Avibactam for at least one, bacterial strain that expresses KPC β-lactamase and/or show a better spectrum of activity"}, {"measurement": "activity against bacterial strains that express the class D cephalosporinase OXA-15, compared with Avibactam", "setting": "[2]", "result": "more active than Avibactam"}]}, {"smiles": "O=C1N2C[C@@H](CC[C@H]2c2nnc(CN[C@H]3CCNC3)o2)N1OS(=O)(=O)O", "note": "[Compound 765, (2S,5R)-7-oxo-2-(5-(((S)-pyrrolidin-3-ylamino)methyl)-1,3,4-oxadiazol-2-yl)-1,6-diazabicyclo[3.2.1]octan-6-yl hydrogen sulfate]", "values": [{"measurement": "activity and/or spectrum of activity against bacterial strains that express KPC β-lactamases, compared with Avibactam", "setting": "[1]", "result": "more active than Avibactam for at least one, bacterial strain that expresses KPC β-lactamase and/or show a better spectrum of activity"}, {"measurement": "activity against bacterial strains that express the class D cephalosporinase OXA-15, compared with Avibactam", "setting": "[2]", "result": "more active than Avibactam"}]}, {"smiles": "O=C1N2C[C@@H](CC[C@H]2c2nnc(CN[C@@H]3CCNC3)o2)N1OS(=O)(=O)O", "note": "[Compound 766, (2S,5R)-7-oxo-2-(5-(((R)-pyrrolidin-3-ylamino)methyl)-1,3,4-oxadiazol-2-yl)-1,6-diazabicyclo[3.2.1]octan-6-yl hydrogen sulfate]", "values": [{"measurement": "activity and/or spectrum of activity against bacterial strains that express KPC β-lactamases, compared with Avibactam", "setting": "[1]", "result": "more active than Avibactam for at least one, bacterial strain that expresses KPC β-lactamase and/or show a better spectrum of activity"}, {"measurement": "activity against bacterial strains that express the class D cephalosporinase OXA-15, compared with Avibactam", "setting": "[2]", "result": "more active than Avibactam"}]}, {"smiles": "N=C1NCC(c2nnc([C@@H]3CC[C@@H]4CN3C(=O)N4OS(=O)(=O)O)o2)N1", "note": "(stereo partly drawn) [Compound 767, (2S,5R)-2-(5-(2-iminoimidazolidin-4-yl)-1,3,4-oxadiazol-2-yl)-7-oxo-1,6-diazabicyclo[3.2.1]octan-6-yl hydrogen sulfate]", "values": [{"measurement": "activity and/or spectrum of activity against bacterial strains that express KPC β-lactamases, compared with Avibactam", "setting": "[1]", "result": "more active than Avibactam for at least one, bacterial strain that expresses KPC β-lactamase and/or show a better spectrum of activity"}, {"measurement": "activity against bacterial strains that express the class D cephalosporinase OXA-15, compared with Avibactam", "setting": "[2]", "result": "more active than Avibactam"}]}, {"smiles": "N[C@H]1CC[C@@H](c2nnc([C@@H]3CC[C@@H]4CN3C(=O)N4OS(=O)(=O)O)o2)C1", "note": "[Compound 768, (2S,5R)-2-(5-((1R,3S)-3-aminocyclopentyl)-1,3,4-oxadiazol-2-yl)-7-oxo-1,6-diazabicyclo[3.2.1]octan-6-yl hydrogen sulfate]", "values": [{"measurement": "activity and/or spectrum of activity against bacterial strains that express KPC β-lactamases, compared with Avibactam", "setting": "[1]", "result": "more active than Avibactam for at least one, bacterial strain that expresses KPC β-lactamase and/or show a better spectrum of activity"}, {"measurement": "activity against bacterial strains that express the class D cephalosporinase OXA-15, compared with Avibactam", "setting": "[2]", "result": "more active than Avibactam"}]}, {"smiles": "O=C1N2C[C@@H](CC[C@H]2c2nnc(CCNC3CCNCC3)o2)N1OS(=O)(=O)O", "note": "[Compound 770, (2S,5R)-7-oxo-2-(5-(2-(piperidin-4-ylamino)ethyl)-1,3,4-oxadiazol-2-yl)-1,6-diazabicyclo[3.2.1]octan-6-yl hydrogen sulfate]", "values": [{"measurement": "activity and/or spectrum of activity against bacterial strains that express KPC β-lactamases, compared with Avibactam", "setting": "[1]", "result": "more active than Avibactam for at least one, bacterial strain that expresses KPC β-lactamase and/or show a better spectrum of activity"}, {"measurement": "activity against bacterial strains that express the class D cephalosporinase OXA-15, compared with Avibactam", "setting": "[2]", "result": "more active than Avibactam"}]}, {"smiles": "O=C1N2C[C@@H](CC[C@H]2c2nnc(CCCNC3CCNCC3)o2)N1OS(=O)(=O)O", "note": "[Compound 771, (2S,5R)-7-oxo-2-(5-(3-(piperidin-4-ylamino)propyl)-1,3,4-oxadiazol-2-yl)-1,6-diazabicyclo[3.2.1]octan-6-yl hydrogen sulfate]", "values": [{"measurement": "activity and/or spectrum of activity against bacterial strains that express KPC β-lactamases, compared with Avibactam", "setting": "[1]", "result": "more active than Avibactam for at least one, bacterial strain that expresses KPC β-lactamase and/or show a better spectrum of activity"}, {"measurement": "activity against bacterial strains that express the class D cephalosporinase OXA-15, compared with Avibactam", "setting": "[2]", "result": "more active than Avibactam"}]}, {"smiles": "O=C1N2C[C@@H](CC[C@H]2c2nnc(CCCCNC3CCNCC3)o2)N1OS(=O)(=O)O", "note": "[Compound 772, (2S,5R)-7-oxo-2-(5-(4-(piperidin-4-ylamino)butyl)-1,3,4-oxadiazol-2-yl)-1,6-diazabicyclo[3.2.1]octan-6-yl hydrogen sulfate]", "values": [{"measurement": "activity and/or spectrum of activity against bacterial strains that express KPC β-lactamases, compared with Avibactam", "setting": "[1]", "result": "more active than Avibactam for at least one, bacterial strain that expresses KPC β-lactamase and/or show a better spectrum of activity"}, {"measurement": "activity against bacterial strains that express the class D cephalosporinase OXA-15, compared with Avibactam", "setting": "[2]", "result": "more active than Avibactam"}]}, {"smiles": "NC1CCN(Cc2nnc([C@@H]3CC[C@@H]4CN3C(=O)N4OS(=O)(=O)O)o2)CC1", "note": "[Compound 774, (2S,5R)-2-(5-((4-aminopiperidin-1-yl)methyl)-1,3,4-oxadiazol-2-yl)-7-oxo-1,6-diazabicyclo[3.2.1]octan-6-yl hydrogen sulfate]", "values": [{"measurement": "activity and/or spectrum of activity against bacterial strains that express KPC β-lactamases, compared with Avibactam", "setting": "[1]", "result": "more active than Avibactam for at least one, bacterial strain that expresses KPC β-lactamase and/or show a better spectrum of activity"}, {"measurement": "activity against bacterial strains that express the class D cephalosporinase OXA-15, compared with Avibactam", "setting": "[2]", "result": "more active than Avibactam"}]}, {"smiles": "O=C1N2C[C@@H](CC[C@H]2c2nnc(CCN3CCNCC3)o2)N1OS(=O)(=O)O", "note": "[Compound 776, (2S,5R)-7-oxo-2-(5-(2-(piperazin-1-ybethyl)-1,3,4-oxadiazol-2-yl)-1,6-diazabicyclo[3.2.1]octan-6-yl hydrogen sulfate]", "values": [{"measurement": "activity and/or spectrum of activity against bacterial strains that express KPC β-lactamases, compared with Avibactam", "setting": "[1]", "result": "more active than Avibactam for at least one, bacterial strain that expresses KPC β-lactamase and/or show a better spectrum of activity"}, {"measurement": "activity against bacterial strains that express the class D cephalosporinase OXA-15, compared with Avibactam", "setting": "[2]", "result": "more active than Avibactam"}]}, {"smiles": "O=C1N2C[C@@H](CC[C@H]2c2nnc(CN3CCNCC3)o2)N1OS(=O)(=O)O", "note": "[Compound 777, (2S,5R)-7-oxo-2-(5-(piperazin-1-ylmethyl)-1,3,4-oxadiazol-2-yl)-1,6-diazabicyclo[3.2.1]octan-6-yl hydrogen sulfate]", "values": [{"measurement": "activity and/or spectrum of activity against bacterial strains that express KPC β-lactamases, compared with Avibactam", "setting": "[1]", "result": "more active than Avibactam for at least one, bacterial strain that expresses KPC β-lactamase and/or show a better spectrum of activity"}, {"measurement": "activity against bacterial strains that express the class D cephalosporinase OXA-15, compared with Avibactam", "setting": "[2]", "result": "more active than Avibactam"}]}, {"smiles": "O=C1N2C[C@@H](CC[C@H]2c2nnc([C@H]3CNCCN3)o2)N1OS(=O)(=O)O", "note": "[Compound 779, (2S,5R)-7-oxo-2-(5((R)-piperazin-2-yl)-1,3,4-oxadiazol-2-yl)-1,6-diazabicyclo[3.2.1]octan-6-yl hydrogen sulfate]", "values": [{"measurement": "activity and/or spectrum of activity against bacterial strains that express KPC β-lactamases, compared with Avibactam", "setting": "[1]", "result": "more active than Avibactam for at least one, bacterial strain that expresses KPC β-lactamase and/or show a better spectrum of activity"}, {"measurement": "activity against bacterial strains that express the class D cephalosporinase OXA-15, compared with Avibactam", "setting": "[2]", "result": "more active than Avibactam"}]}]}
